Data as given in patent US10344060B2 (priority 2013, dated 2019).

Assays:
Test in all cases: cell-based
rNav1.7 = rNav1.7 (Rattus norvegicus, UniProt O08562); details: for rNav1.7/hNav1.7: ratio of PX tonic IC50, rat Nav1.7 over human Nav1.7; for IC50: PatchXpress, tonic block, rat Nav1.7, read-out: PX rNav1.7 Tonic IC50
mNav1.7 = mNav1.7 (Mus musculus, UniProt Q62205); details: for mNav1.7/hNav1.7: ratio of PX tonic IC50, mouse Nav1.7 over human Nav1.7; for IC50: PatchXpress, tonic block, mouse Nav1.7, read-out: PX mNav1.7 Tonic IC50
mNav1.7, sequence (Q62205 whole entry): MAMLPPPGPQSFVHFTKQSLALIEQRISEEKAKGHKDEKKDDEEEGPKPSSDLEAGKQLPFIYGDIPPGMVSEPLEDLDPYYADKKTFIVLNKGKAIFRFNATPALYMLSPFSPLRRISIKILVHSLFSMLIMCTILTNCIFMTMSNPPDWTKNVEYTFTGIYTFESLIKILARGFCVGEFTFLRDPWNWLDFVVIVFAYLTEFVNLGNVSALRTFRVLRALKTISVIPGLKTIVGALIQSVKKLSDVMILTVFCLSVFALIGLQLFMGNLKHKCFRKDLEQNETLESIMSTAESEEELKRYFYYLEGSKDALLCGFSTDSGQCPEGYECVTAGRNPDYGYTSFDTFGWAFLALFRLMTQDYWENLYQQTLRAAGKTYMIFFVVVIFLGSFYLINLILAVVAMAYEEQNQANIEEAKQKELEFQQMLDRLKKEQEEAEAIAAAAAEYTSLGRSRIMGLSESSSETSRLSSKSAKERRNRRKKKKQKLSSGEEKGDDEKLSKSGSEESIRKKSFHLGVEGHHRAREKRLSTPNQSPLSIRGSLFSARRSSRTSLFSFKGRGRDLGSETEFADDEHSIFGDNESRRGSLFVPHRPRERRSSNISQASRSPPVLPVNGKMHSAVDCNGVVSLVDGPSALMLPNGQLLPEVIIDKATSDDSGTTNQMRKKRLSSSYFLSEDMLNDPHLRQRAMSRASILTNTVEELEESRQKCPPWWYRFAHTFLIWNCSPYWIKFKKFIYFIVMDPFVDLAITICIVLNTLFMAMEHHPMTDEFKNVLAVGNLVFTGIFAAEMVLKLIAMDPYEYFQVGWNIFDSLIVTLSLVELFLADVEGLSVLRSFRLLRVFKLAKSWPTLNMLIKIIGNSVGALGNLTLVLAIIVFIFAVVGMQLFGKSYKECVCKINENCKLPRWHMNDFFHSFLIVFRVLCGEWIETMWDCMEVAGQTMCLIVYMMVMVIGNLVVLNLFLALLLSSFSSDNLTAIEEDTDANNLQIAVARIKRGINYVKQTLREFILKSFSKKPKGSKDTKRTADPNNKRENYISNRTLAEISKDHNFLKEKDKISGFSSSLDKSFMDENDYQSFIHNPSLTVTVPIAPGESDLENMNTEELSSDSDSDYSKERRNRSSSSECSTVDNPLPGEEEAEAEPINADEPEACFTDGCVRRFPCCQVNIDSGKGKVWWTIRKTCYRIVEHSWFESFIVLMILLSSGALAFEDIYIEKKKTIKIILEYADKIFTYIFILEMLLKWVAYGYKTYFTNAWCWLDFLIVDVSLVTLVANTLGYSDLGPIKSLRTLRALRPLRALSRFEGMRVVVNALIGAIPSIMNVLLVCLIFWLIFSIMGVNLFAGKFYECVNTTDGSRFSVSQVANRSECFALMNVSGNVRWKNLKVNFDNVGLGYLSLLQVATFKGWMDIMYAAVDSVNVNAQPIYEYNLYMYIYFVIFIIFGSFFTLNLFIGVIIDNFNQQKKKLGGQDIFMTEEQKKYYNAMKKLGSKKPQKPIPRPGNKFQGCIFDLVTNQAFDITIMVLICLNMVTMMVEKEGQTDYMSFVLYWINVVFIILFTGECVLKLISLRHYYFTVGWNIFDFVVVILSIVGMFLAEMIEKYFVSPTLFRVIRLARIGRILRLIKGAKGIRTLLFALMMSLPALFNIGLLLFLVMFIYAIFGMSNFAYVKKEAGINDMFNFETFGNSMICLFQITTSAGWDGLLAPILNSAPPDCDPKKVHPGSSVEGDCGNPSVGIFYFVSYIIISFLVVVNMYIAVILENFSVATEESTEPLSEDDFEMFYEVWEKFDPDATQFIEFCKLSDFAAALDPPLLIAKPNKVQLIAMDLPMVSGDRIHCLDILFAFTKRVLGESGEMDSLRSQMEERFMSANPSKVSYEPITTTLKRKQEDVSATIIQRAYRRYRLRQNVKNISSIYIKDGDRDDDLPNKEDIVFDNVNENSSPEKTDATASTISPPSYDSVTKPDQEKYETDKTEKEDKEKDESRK

hNav1.7 = hNav1.7 (Homo sapiens, UniProt Q15858); type: cell-based; details: PatchXpress, tonic block, human Nav1.7; read-out: PX hNav1.7 Tonic IC50

rNav1.7, sequence (O08562 whole entry): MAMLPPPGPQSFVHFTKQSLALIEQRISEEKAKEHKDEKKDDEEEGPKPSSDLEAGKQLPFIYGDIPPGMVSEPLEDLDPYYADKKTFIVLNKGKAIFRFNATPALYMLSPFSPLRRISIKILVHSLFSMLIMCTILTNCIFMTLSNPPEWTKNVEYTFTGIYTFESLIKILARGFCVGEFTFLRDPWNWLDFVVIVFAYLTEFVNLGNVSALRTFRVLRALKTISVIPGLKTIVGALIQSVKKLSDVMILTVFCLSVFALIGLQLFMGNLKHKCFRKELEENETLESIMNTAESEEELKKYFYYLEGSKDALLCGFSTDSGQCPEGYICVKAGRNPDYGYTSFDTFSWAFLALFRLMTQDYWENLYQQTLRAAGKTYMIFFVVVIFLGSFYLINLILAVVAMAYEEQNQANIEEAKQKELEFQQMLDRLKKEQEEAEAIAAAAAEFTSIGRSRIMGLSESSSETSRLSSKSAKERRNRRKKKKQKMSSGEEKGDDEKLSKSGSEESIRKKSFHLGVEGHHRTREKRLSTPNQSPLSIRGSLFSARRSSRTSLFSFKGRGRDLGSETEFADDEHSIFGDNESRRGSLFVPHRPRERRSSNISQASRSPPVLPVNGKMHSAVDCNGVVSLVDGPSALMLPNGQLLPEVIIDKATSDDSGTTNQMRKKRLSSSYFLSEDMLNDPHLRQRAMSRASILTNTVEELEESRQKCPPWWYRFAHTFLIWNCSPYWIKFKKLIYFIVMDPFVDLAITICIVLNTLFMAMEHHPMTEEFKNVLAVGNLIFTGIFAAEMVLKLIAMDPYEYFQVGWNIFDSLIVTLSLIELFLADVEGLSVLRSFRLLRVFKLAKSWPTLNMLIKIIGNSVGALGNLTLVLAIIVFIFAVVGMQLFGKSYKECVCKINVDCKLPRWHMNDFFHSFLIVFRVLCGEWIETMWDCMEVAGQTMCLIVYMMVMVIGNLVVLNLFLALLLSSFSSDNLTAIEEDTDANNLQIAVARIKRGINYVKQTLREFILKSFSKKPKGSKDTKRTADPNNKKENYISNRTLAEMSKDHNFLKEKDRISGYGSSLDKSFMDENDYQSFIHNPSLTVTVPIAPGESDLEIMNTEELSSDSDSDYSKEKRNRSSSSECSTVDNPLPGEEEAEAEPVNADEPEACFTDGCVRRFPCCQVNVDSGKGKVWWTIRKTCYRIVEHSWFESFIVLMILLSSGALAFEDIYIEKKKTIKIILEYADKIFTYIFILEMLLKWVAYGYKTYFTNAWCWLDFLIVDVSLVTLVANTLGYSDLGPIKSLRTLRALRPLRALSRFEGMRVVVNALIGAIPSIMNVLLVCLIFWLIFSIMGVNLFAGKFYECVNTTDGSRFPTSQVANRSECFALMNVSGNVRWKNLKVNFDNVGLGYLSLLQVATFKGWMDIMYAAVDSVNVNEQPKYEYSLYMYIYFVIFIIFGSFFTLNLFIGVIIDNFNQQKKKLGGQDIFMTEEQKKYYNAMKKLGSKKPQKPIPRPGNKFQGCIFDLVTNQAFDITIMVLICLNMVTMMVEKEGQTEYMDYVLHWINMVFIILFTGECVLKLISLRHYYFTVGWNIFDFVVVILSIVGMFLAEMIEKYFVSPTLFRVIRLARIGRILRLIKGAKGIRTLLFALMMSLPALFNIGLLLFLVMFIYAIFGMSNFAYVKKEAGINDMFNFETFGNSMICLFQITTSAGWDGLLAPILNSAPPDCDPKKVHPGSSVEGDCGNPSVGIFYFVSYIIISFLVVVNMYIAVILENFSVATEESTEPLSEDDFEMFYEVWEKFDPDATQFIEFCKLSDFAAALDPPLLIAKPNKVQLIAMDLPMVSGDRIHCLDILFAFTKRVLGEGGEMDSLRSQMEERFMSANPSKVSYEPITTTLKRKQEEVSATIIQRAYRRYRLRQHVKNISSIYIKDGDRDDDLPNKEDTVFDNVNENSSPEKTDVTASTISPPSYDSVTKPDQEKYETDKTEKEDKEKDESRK

SMILES | rNav1.7/hNav1.7 (rNav1.7) | mNav1.7/hNav1.7 (mNav1.7) | IC50 (rNav1.7) | IC50 (mNav1.7) | IC50 (hNav1.7)
CCCC[C@@H]1NC(=O)[C@H](Cc2c[nH]c3ccccc23)NC(=O)[C@H](CCCCN)NC(=O)[C@H](CCC(N)=O)NC(=O)[C@@H](NC(=O)[C@H](Cc2ccc(O)cc2)NC(=O)[C@@H](N)CC#N)CSSC[C@@H]2NC(=O)[C@@H]3CSSC[C@@H](C(=O)N[C@@H](CCCNC(=N)N)C(=O)N[C@@H](CCCCN)C(=O)N[C@@H](CCC(=O)O)C(=O)N[C@H](C(N)=O)[C@@H](C)CC)NC(=O)[C@H](Cc4c[nH]c5ccccc45)NC(=O)[C@H](CC(C)C)NC(=O)[C@H](CCCCN)NC(=O)[C@H](CSSC[C@H](NC(=O)[C@H]([C@@H](C)O)NC(=O)[C@H](Cc4c[nH]c5ccccc45)NC1=O)C(=O)N[C@@H](CC(=O)O)C(=O)N[C@@H](CO)C(=O)N[C@@H](CCCCN)C(=O)N[C@@H](CCCNC(=N)N)C(=O)N[C@@H](C)C(=O)N3)NC(=O)[C@H](CCCNC(=N)N)NC(=O)[C@H](CC(C)C)NC(=O)CNC(=O)[C@H](Cc1cn(CCCOCCOCCOCCOCCOCCOCCOCCOCCOCCOCCN)nn1)NC2=O | 0.46 | 2.23 | – | – | –
CCCC[C@@H]1NC(=O)[C@H](Cc2c[nH]c3ccccc23)NC(=O)[C@H](CCCCN)NC(=O)[C@H](CCC(N)=O)NC(=O)[C@@H](NC(=O)[C@H](Cc2ccc(O)cc2)NC(=O)[C@@H](N)Cc2cn(CCOCCOCCOCCOCCOCCOCCOCCOCCOCCOCCN)nn2)CSSC[C@@H]2NC(=O)[C@@H]3CSSC[C@@H](C(=O)N[C@@H](CCCNC(=N)N)C(=O)N[C@@H](CCCCN)C(=O)N[C@H](C(=O)N[C@H](C(N)=O)[C@@H](C)CC)[C@@H](C)CC)NC(=O)[C@H](Cc4c[nH]c5ccccc45)NC(=O)[C@H](CC(C)C)NC(=O)[C@H](CCCCN)NC(=O)[C@H](CSSC[C@H](NC(=O)[C@H]([C@@H](C)O)NC(=O)[C@H](Cc4c[nH]c5ccccc45)NC1=O)C(=O)N[C@@H](CC(=O)O)C(=O)N[C@@H](CO)C(=O)N[C@@H](CCCCN)C(=O)N[C@@H](CCCNC(=N)N)C(=O)N[C@@H](C)C(=O)N3)NC(=O)[C@H](CCCNC(=N)N)NC(=O)[C@H](CC(C)C)NC(=O)CNC(=O)[C@H](CCC(=O)O)NC2=O [Atz(NPEG9)-[Nle6]JzTx-V(1-29)] | 0.22 | 1.65 | – | – | –
C#CC[C@@H]1NC(=O)[C@H](CC(=O)O)NC(=O)[C@@H]2CSSC[C@@H]3NC(=O)[C@H](CCCNC(=N)N)NC(=O)[C@H](CC(C)C)NC(=O)CNC(=O)[C@H](CCC(=O)O)NC(=O)[C@H](CSSC[C@H](NC(=O)[C@H](Cc4ccc(O)cc4)NC(=O)[C@@H](N)CC#N)C(=O)N[C@@H](CCC(N)=O)C(=O)N[C@@H](CCCCN)C(=O)N[C@@H](Cc4c[nH]c5ccccc45)C(=O)N[C@@H](CCCC)C(=O)N[C@@H](Cc4c[nH]c5ccccc45)C(=O)N[C@@H]([C@@H](C)O)C(=O)N2)NC(=O)[C@H](CSSC[C@@H](C(=O)N[C@@H](CCCNC(=N)N)C(=O)N[C@@H](CCCCN)C(=O)N[C@@H](CCC(=O)O)C(=O)N[C@H](C(N)=O)[C@@H](C)CC)NC(=O)[C@H](Cc2c[nH]c4ccccc24)NC(=O)[C@H](CC(C)C)NC(=O)[C@H](CCCCN)NC3=O)NC(=O)[C@H](C)NC(=O)[C@H](CCCNC(=N)N)NC(=O)[C@H](CCCCN)NC1=O [CyA-[Nle6; Pra11; Glu28]JzTx-V(1-29)] | 11.58 | 20.87 | 2.24 nM | 4.04 nM | –
C#CC[C@H](NC(=O)[C@@H](N)CCC(=O)O)C(=O)N[C@H]1CSSC[C@@H]2NC(=O)[C@@H]3CSSC[C@@H](C(=O)N[C@@H](CCCNC(=N)N)C(=O)N[C@@H](CCCCN)C(=O)N[C@@H](CCC(=O)O)C(=O)N[C@H](C(N)=O)[C@@H](C)CC)NC(=O)[C@H](Cc4c[nH]c5ccccc45)NC(=O)[C@H](CC(C)C)NC(=O)[C@H](CCCCN)NC(=O)[C@H](CSSC[C@H](NC(=O)[C@H]([C@@H](C)O)NC(=O)[C@H](Cc4c[nH]c5ccccc45)NC(=O)[C@H](CCCC)NC(=O)[C@H](Cc4c[nH]c5ccccc45)NC(=O)[C@H](CCCCN)NC(=O)[C@H](CCC(N)=O)NC1=O)C(=O)N[C@@H](CC(=O)O)C(=O)N[C@@H](CO)C(=O)N[C@@H](CCCCN)C(=O)N[C@@H](CCCNC(=N)N)C(=O)N[C@@H](CCC(=O)O)C(=O)N3)NC(=O)[C@H](CCCNC(=N)N)NC(=O)[C@H](CC(C)C)NC(=O)CNC(=O)[C@H](CCC(=O)O)NC2=O [Glu-[Pra1; Nle6; Glu14, 28]JzTx-V(1-29)] | 5.94 | 28.63 | 3.34 nM | 16.1 nM | –
C#CC[C@H](N)C(=O)N[C@@H](Cc1ccc(O)cc1)C(=O)N[C@H]1CSSC[C@@H]2NC(=O)[C@@H]3CSSC[C@@H](C(=O)N[C@@H](CCCNC(=N)N)C(=O)N[C@@H](CCCCN)C(=O)N[C@@H](CCC(=O)O)C(=O)N[C@H](C(N)=O)[C@@H](C)CC)NC(=O)[C@H](Cc4c[nH]c5ccc(Br)cc45)NC(=O)[C@H](CC(C)C)NC(=O)[C@H](CCCCN)NC(=O)[C@H](CSSC[C@H](NC(=O)[C@H]([C@@H](C)O)NC(=O)[C@H](Cc4c[nH]c5ccccc45)NC(=O)[C@H](CCCC)NC(=O)[C@H](Cc4c[nH]c5ccccc45)NC(=O)[C@H](CCCCN)NC(=O)[C@H](CCC(N)=O)NC1=O)C(=O)N[C@@H](CC(=O)O)C(=O)N[C@@H](CO)C(=O)N[C@@H](CCCCN)C(=O)N[C@@H](CCCNC(=N)N)C(=O)N[C@@H](C)C(=O)N3)NC(=O)[C@H](CCCNC(=N)N)NC(=O)[C@H](CC(C)C)NC(=O)CNC(=O)[C@H](CCC(=O)O)NC2=O [Pra-[Nle6; 5-BrW24; Glu28]JzTx-V(1-29)] | 62.26 | 23.34 | 2.43 nM | 0.911 nM | –
C#CC[C@H](N)C(=O)N[C@@H](Cc1ccc(O)cc1)C(=O)N[C@H]1CSSC[C@@H]2NC(=O)[C@@H]3CSSC[C@@H](C(=O)N[C@@H](CCCNC(=N)N)C(=O)N[C@@H](CCCCN)C(=O)N[C@@H](CCC(=O)O)C(=O)N[C@H](C(N)=O)[C@@H](C)CC)NC(=O)[C@H](Cc4c[nH]c5ccccc45)NC(=O)[C@H](C4CCCCC4)NC(=O)[C@H](CCCCN)NC(=O)[C@H](CSSC[C@H](NC(=O)[C@H]([C@@H](C)O)NC(=O)[C@H](Cc4c[nH]c5ccccc45)NC(=O)[C@H](CCCC)NC(=O)[C@H](Cc4c[nH]c5ccccc45)NC(=O)[C@H](CCCCN)NC(=O)[C@H](CCC(N)=O)NC1=O)C(=O)N[C@@H](CC(=O)O)C(=O)N[C@@H](CO)C(=O)N[C@@H](CCCCN)C(=O)N[C@@H](CCCNC(=N)N)C(=O)N[C@@H](C)C(=O)N3)NC(=O)[C@H](CCCNC(=N)N)NC(=O)[C@H](CC(C)C)NC(=O)CNC(=O)[C@H](CCC(=O)O)NC2=O [Pra-[Nle6; Chg23; Glu28]JzTx-V(1-29)] | 6.68 | 1.81 | 3.27 nM | 0.884 nM | –
C#CC[C@H](N)C(=O)N[C@@H](Cc1ccc(O)cc1)C(=O)N[C@H]1CSSC[C@@H]2NC(=O)[C@@H]3CSSC[C@@H](C(=O)N[C@@H](CCCNC(=N)N)C(=O)N[C@@H](CCCCN)C(=O)N[C@@H](CCC(=O)O)C(=O)N[C@@H](Cc4ccccc4)C(N)=O)NC(=O)[C@H](Cc4c[nH]c5ccccc45)NC(=O)[C@H](CC(C)C)NC(=O)[C@H](CCCCN)NC(=O)[C@H](CSSC[C@H](NC(=O)[C@H]([C@@H](C)O)NC(=O)[C@H](Cc4c[nH]c5ccccc45)NC(=O)[C@H](CCCC)NC(=O)[C@H](Cc4c[nH]c5ccccc45)NC(=O)[C@H](CCCCN)NC(=O)[C@H](CCC(N)=O)NC1=O)C(=O)N[C@@H](CC(=O)O)C(=O)N[C@@H](CO)C(=O)N[C@@H](CCCCN)C(=O)N[C@@H](CCCNC(=N)N)C(=O)N[C@@H](C)C(=O)N3)NC(=O)[C@H](CCCNC(=N)N)NC(=O)[C@H](CC(C)C)NC(=O)CNC(=O)[C@H](CCC(=O)O)NC2=O [Pra-[Nle6; Glu28; Phe29]JzTx-V(1-29)] | 0.76 | 8.90 | 0.296 nM | 3.45 nM | –
C#CC[C@H](N)C(=O)N[C@@H](Cc1ccc(O)cc1)C(=O)N[C@H]1CSSC[C@@H]2NC(=O)[C@@H]3CSSC[C@@H](C(=O)N[C@@H](CCCNC(=N)N)C(=O)N[C@@H](CCCCN)C(=O)N[C@@H](CCC(=O)O)C(=O)N[C@@H](Cc4c[nH]c5ccccc45)C(N)=O)NC(=O)[C@H](Cc4c[nH]c5ccccc45)NC(=O)[C@H](CC(C)C)NC(=O)[C@H](CCCCN)NC(=O)[C@H](CSSC[C@H](NC(=O)[C@H]([C@@H](C)O)NC(=O)[C@H](Cc4c[nH]c5ccccc45)NC(=O)[C@H](CCCC)NC(=O)[C@H](Cc4c[nH]c5ccccc45)NC(=O)[C@H](CCCCN)NC(=O)[C@H](CCC(N)=O)NC1=O)C(=O)N[C@@H](CC(=O)O)C(=O)N[C@@H](CO)C(=O)N[C@@H](CCCCN)C(=O)N[C@@H](CCCNC(=N)N)C(=O)N[C@@H](C)C(=O)N3)NC(=O)[C@H](CCCNC(=N)N)NC(=O)[C@H](CC(C)C)NC(=O)CNC(=O)[C@H](CCC(=O)O)NC2=O [Pra-[Nle6; Glu28; Trp29]JzTx-V(1-29)] | 0.27 | 8.82 | 0.097 nM | 3.11 nM | 0.352 nM
CC[C@H](C)[C@H](NC(=O)[C@H](CCCCN)NC(=O)[C@H](CCCNC(=N)N)NC(=O)[C@@H]1CSSC[C@@H]2NC(=O)[C@H](C)NC(=O)[C@H](CCCNC(=N)N)NC(=O)[C@H](CCCCN)NC(=O)[C@H](CO)NC(=O)[C@H](CC(=O)O)NC(=O)[C@@H]3CSSC[C@H](NC(=O)[C@H](CCC(=O)O)NC(=O)[C@H](CC(C)C)NC(=O)CNC(=O)[C@H](CCC(=O)O)NC(=O)[C@H](CSSC[C@H](NC(=O)[C@@H](N)Cc4ccc(O)cc4)C(=O)N[C@@H](CCC(N)=O)C(=O)N[C@@H](CCCCN)C(=O)N[C@@H](Cc4c[nH]c5ccccc45)C(=O)N[C@@H](CCSC)C(=O)N[C@@H](Cc4c[nH]c5ccccc45)C(=O)N[C@@H]([C@@H](C)O)C(=O)N3)NC2=O)C(=O)N[C@@H](CCCCN)C(=O)N[C@@H](CC(C)C)C(=O)N[C@@H](Cc2c[nH]c3ccccc23)C(=O)N1)C(=O)N[C@@H](Cc1c[nH]c2ccccc12)C(N)=O [[Glu20, Trp29]JzTx-V] | 0.82 | 3.20 | 1.3 nM | 5.08 nM | –
